The values that follow come from patent US20240182531A1, “KV1.3 Blockers” (priority 2021, published 2024).

The target in one assay is T1, human Kv1.2 (Homo sapiens, UniProt P16389).
T1 construct: expressed in transfected cells; host or cells: CHO
The assay can be described thus: cell-based. The note with it: ratio of patch clamp IC50 values.

The target of a further assay is T2, human Kv1.6 (Homo sapiens, UniProt P17658).
T2 construct: expressed in transfected cells; host or cells: CHO
The assay can be described thus: cell-based. Particulars: ratio of patch clamp IC50 values.

Assay [1] has as its system Human peripheral blood mononuclear cells (PBMCs). It is filed as cell-based. Particulars: geometric mean, at least 6 replicates, Example 5b; read-out: anti-CD3 PBMC/IL-2 IC50. How it is done: Human peripheral blood mononuclear cells (PBMCs) were used to assess the effects of Kv1.3 blocker reference compounds on T-cell activation as determined by IL-2 release after stimulation with anti-CD3.
Human PBMCs were obtained from Precision for Medicine (Frederick, MD). Cells from 5 donors were used. Plate-bound anti-CD3 was used to stimulate bulk T cells in the PBMC preparations. Briefly, 96-well plates were coated with anti-CD3 antibody for app. 16 hours at 5° C., using 50 μl of a 1 μg/ml anti-CD3 solution diluted in PBS. Thereafter the plates were washed twice.
Kv1.3 blockers were subsequently diluted in medium (RPMI 1640 with Glutamax-I containing, 10% v/v Fetal Bovine Serum, 1% v/v penicillin-streptomycin Solution) and added in a volume of 50 μl. The compounds indicated in Table 8b were used at concentrations ranging from 0.3 pM to 1000 nM (half log dilutions, starting concentrations varying).
Finally, 50.000 PBMCs in the same medium were added to each well in a volume of 50 μl, giving a final volume of 100 μl per well. The plates were incubated for 20-24 hours in a 37° C./5% CO2 incubator. After centrifugation of the plates, 25 μl supernatant was transferred to IL-2 detection plates (MSD Human IL-2 Tissue Culture Kit, cat #K151AHB-2) and IL-2 was measures as described by the manufacturer (Meso Scale Discovery, Rockville, Maryland, USA).
All values derive from at least 6 replicates.

For another assay, the target named is Rat whole blood (Rattus norvegicus, UniProt P15384). The format is cell-based. The note with it: IL-17A release, thapsigargin, 24 Hr, at least 2 replicates.
Another assay has as its target T3, human Kv1.1 (Homo sapiens, UniProt Q09470).
T3 construct: expressed in transfected cells; host or cells: CHO
Put plainly: cell-based. The note with it: ratio of patch clamp IC50 values. (In general: In patch-clamp work, channel activity is measured electrically.)

Assay [2] relates to Human peripheral blood mononuclear cells (PBMCs). It is filed as cell-based. Particulars: geometric mean, at least 4 replicates, Example 5a; read-out: anti-CD3 PBMC/IL-2 IC50. The protocol: Human peripheral blood mononuclear cells (PBMCs) were used to assess the effects of Kv1.3 blocker reference compounds on T-cell activation as determined by IL-2 (cytokine) release after stimulation with anti-CD3.
Human PBMCs were obtained from Precision for Medicine (Frederick, MD). Cells from 5 donors were used. Plate-bound anti-CD3 was used to stimulate bulk T cells in the PBMC preparations. Briefly, 96-well plates were coated with anti-CD3 antibody for 2 hrs at 37° C., using 50 μL of a 0.5 μg/mL anti-CD3 solution diluted in 1×PBS. Thereafter the plates were washed twice.
Kv1.3 blockers as shown in Table 8a were diluted in medium (RPMI 1640 with Glutamax-I containing 10% v/v Fetal Bovine Serum, 1% v/v penicillin-streptomycin solution) and added in a volume of 100 μL at concentrations ranging from 0.01 pM to 100 nM (tenfold dilutions). […] Finally, 1×10^5 PBMCs were added to each well in a volume of 100 μL, giving a final volume of 200 μL per well. The plates were incubated for 20-24 hours in a 37 °C/5% CO2 incubator. After centrifugation of the plates, 25 μl supernatant was transferred to IL-2 detection plates (MSD Human IL-2 Tissue Culture Kit, cat #K151AHB-2) and IL-2 was measures as described by the manufacturer (Meso Scale Discovery, Rockville, Maryland, USA).
Results are shown in Table 8a as geometric mean of IC50 values obtained from anti-CD3 stimulated human PBMC assays. All values derive from at least 4 replicates.

pIC50: −log10 of the molar value. Read-outs that look alike come from different tables or passages of the source. Where a SMILES comes first, the peptide text is derived from it. Bridges are numbered along the chain shown (N, C = ends). [ ]: non-standard residue; d: D form. Nle = CCCC[C@H](N)C(=O)O

Rat whole blood, sequence (P15384 whole entry): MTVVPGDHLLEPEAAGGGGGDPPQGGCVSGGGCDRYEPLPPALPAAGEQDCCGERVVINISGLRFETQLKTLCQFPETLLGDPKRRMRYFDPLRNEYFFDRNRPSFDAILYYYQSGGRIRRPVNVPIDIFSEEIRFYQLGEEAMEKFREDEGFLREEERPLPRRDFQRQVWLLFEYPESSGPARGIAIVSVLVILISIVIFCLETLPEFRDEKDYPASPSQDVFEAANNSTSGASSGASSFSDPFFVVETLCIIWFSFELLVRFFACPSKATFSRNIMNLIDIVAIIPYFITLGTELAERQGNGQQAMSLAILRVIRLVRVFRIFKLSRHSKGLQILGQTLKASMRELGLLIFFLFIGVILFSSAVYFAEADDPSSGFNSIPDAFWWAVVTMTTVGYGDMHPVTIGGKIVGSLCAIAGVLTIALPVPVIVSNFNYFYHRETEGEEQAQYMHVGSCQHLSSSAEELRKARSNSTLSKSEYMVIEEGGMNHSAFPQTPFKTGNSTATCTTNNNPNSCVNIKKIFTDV
T1 sequence (P16389 whole entry): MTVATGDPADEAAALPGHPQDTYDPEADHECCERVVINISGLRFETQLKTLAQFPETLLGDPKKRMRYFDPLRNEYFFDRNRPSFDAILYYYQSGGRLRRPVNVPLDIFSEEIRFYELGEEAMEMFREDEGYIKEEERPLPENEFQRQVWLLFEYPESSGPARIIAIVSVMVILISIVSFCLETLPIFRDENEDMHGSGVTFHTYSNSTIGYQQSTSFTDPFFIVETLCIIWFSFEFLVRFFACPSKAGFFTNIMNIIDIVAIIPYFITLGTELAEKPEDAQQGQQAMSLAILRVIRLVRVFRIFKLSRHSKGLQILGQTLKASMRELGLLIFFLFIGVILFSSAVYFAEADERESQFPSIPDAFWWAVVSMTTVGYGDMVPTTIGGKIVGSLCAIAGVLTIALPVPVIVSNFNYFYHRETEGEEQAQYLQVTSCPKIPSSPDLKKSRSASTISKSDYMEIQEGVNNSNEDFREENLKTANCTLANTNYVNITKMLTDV
T2 sequence (P17658 whole entry): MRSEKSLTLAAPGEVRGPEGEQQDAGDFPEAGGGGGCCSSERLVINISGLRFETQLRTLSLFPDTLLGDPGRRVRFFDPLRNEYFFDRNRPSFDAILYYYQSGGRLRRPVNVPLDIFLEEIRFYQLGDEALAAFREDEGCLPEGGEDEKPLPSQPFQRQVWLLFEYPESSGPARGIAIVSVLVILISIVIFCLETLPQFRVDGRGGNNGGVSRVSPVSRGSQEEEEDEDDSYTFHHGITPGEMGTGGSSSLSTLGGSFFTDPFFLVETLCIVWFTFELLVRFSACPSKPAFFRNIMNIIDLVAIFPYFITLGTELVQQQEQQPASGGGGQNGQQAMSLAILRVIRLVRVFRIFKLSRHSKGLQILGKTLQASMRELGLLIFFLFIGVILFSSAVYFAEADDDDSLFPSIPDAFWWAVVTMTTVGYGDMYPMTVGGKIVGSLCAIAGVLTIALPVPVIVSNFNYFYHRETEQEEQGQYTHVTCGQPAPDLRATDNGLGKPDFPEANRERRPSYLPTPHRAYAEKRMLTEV
T3 sequence (Q09470 whole entry): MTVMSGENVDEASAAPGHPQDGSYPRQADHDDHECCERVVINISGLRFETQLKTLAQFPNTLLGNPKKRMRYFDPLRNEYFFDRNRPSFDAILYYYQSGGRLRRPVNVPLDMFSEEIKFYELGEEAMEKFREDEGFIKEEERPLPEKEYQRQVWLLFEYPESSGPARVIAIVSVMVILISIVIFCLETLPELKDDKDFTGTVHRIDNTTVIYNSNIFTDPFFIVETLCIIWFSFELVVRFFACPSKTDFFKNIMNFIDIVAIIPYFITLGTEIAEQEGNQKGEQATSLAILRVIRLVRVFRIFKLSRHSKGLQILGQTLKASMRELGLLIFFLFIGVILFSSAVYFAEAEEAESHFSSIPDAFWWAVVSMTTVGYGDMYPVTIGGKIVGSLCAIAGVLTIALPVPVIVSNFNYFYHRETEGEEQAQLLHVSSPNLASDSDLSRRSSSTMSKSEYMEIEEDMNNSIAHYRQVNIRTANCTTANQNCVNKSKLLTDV

For `CC[C@H](C)[C@@H]1NC(=O)[C@H](C)NC(=O)[C@H](CCCCN)NC(=O)[C@H](CC(C)C)NC(=O)[C@@H]2CSSC[C@@H](C(=O)N[C@@H](Cc3ccc(O)cc3)C(=O)N3CCC[C@H]3C(=O)N[C@@H](CCCNC(=N)N)C(=O)O)NC(=O)[C@H](CCCCN)NC(=O)[C@@H]3CSSC[C@H](NC(=O)[C@H](CCC(=O)O)NC(=O)[C@H](C(C)C)NC(=O)[C@H](CO)NC(=O)[C@H](C)NC(=O)[C@H](CO)NC(=O)[C@@H](NC(=O)[C@H](CCCNC(=N)N)NC(=O)[C@H](CCSC)NC(=O)[C@H](CC(=O)O)NC(=O)[C@H](CCSC)NC(=O)[C@@H](N)CCC(N)=O)CSSC[C@H](NC(=O)[C@H](CCCCN)NC(=O)CNC(=O)[C@H](Cc4ccccc4)NC(=O)[C@H]([C@@H](C)CC)NC(=O)[C@H](CO)NC(=O)CNC1=O)C(=O)N[C@@H](CCSC)C(=O)N[C@@H](CC(N)=O)C(=O)N[C@@H](CCCCN)C(=O)N[C@@H](CCCCN)C(=O)N3)C(=O)N[C@@H](CCCCN)C(=O)N[C@@H](CCC(N)=O)C(=O)N[C@@H](CCCCN)C(=O)N2` [compound 15] (H-QMDMRCSASVECKQKCLKAIGSIFGKCMNKKCKCYPR-OH; disulfide 6-27, 12-32, 16-34), at human Kv1.2, the “Selectivity ratio Kv1.2/Kv1.3” value is reported as 1364. Also, the “Selectivity ratio Kv1.6/Kv1.3” value on human Kv1.6 is >7900. Besides, the results for the pIC50 (in assay [1]; against Rat whole blood) were 10.05 and 9.77, respectively. Besides, the “Selectivity ratio Kv1.1/Kv1.3” value at human Kv1.1 is given as >7900.
Turning to `CC[C@H](C)[C@@H]1NC(=O)[C@H](C)NC(=O)[C@H](CCCCN)NC(=O)[C@H](CC(C)C)NC(=O)[C@@H]2CSSC[C@@H](C(=O)N[C@@H](Cc3ccc(O)cc3)C(=O)N3CCC[C@H]3C(=O)N[C@@H](CCCNC(=N)N)C(N)=O)NC(=O)[C@H](CCCCN)NC(=O)[C@@H]3CSSC[C@H](NC(=O)[C@H](CCC(=O)O)NC(=O)[C@H](C(C)C)NC(=O)[C@H](CO)NC(=O)[C@H](C)NC(=O)[C@H](CO)NC(=O)[C@@H](NC(=O)[C@H](CCCNC(=N)N)NC(=O)[C@H](CCSC)NC(=O)[C@H](CC(=O)O)NC(=O)[C@H](CCSC)NC(=O)[C@@H](N)CC(N)=O)CSSC[C@H](NC(=O)[C@H](CCCCN)NC(=O)CNC(=O)[C@H](Cc4ccccc4)NC(=O)[C@H]([C@@H](C)CC)NC(=O)[C@H](CO)NC(=O)CNC1=O)C(=O)N[C@@H](CCSC)C(=O)N[C@@H](CC(N)=O)C(=O)N[C@@H](CCCCN)C(=O)N[C@@H](CCCCN)C(=O)N3)C(=O)N[C@@H](CCCCN)C(=O)N[C@@H](C(C)C)C(=O)N[C@@H](CCCCN)C(=O)N2` [compound 22] (H-NMDMRCSASVECKVKCLKAIGSIFGKCMNKKCKCYPR-NH2; disulfide 6-27, 12-32, 16-34), the “Selectivity ratio Kv1.2/Kv1.3” value on human Kv1.2 is 159. Further, on human Kv1.6, the “Selectivity ratio Kv1.6/Kv1.3” value is given as 2182. The pIC50 at Rat whole blood is 9.06; in assay [2], 9.40. Also, at human Kv1.1, the “Selectivity ratio Kv1.1/Kv1.3” value was >7200.
For `CC[C@H](C)[C@@H]1NC(=O)[C@H](C)NC(=O)[C@H](CC(=O)O)NC(=O)[C@H](CC(C)C)NC(=O)[C@@H]2CSSC[C@@H](C(=O)N[C@@H](Cc3ccc(O)cc3)C(=O)N3CCC[C@H]3C(=O)N[C@@H](CCCNC(=N)N)C(N)=O)NC(=O)[C@H](CCCCN)NC(=O)[C@@H]3CSSC[C@H](NC(=O)[C@H](CCC(=O)O)NC(=O)[C@H](C(C)C)NC(=O)[C@H](CO)NC(=O)[C@H](C)NC(=O)[C@H](CO)NC(=O)[C@@H](NC(=O)[C@H](CCCNC(=N)N)NC(=O)[C@H](CCSC)NC(=O)[C@H](CC(=O)O)NC(=O)[C@H](CCSC)NC(=O)[C@@H](N)CC(N)=O)CSSC[C@H](NC(=O)[C@H](CCCCN)NC(=O)CNC(=O)[C@H](Cc4ccccc4)NC(=O)[C@H]([C@@H](C)CC)NC(=O)[C@H](CO)NC(=O)CNC1=O)C(=O)N[C@@H](CCSC)C(=O)N[C@@H](CC(N)=O)C(=O)N[C@@H](CCCCN)C(=O)N[C@@H](CCCCN)C(=O)N3)C(=O)N[C@@H](CCCCN)C(=O)N[C@@H](CCC(N)=O)C(=O)N[C@@H](CCCCN)C(=O)N2` [compound 25] (H-NMDMRCSASVECKQKCLDAIGSIFGKCMNKKCKCYPR-NH2; disulfide 6-27, 12-32, 16-34) the same measures were 471, 12045, 8.92, 10.00 and >14300.
For `CC[C@H](C)[C@@H]1NC(=O)[C@H](C)NC(=O)[C@H](CCCCN)NC(=O)[C@H](CC(C)C)NC(=O)[C@@H]2CSSC[C@@H](C(=O)N[C@@H](Cc3ccc(O)cc3)C(=O)N3CCC[C@H]3C(=O)N[C@@H](CCCNC(=N)N)C(N)=O)NC(=O)[C@H](CCCCN)NC(=O)[C@@H]3CSSC[C@H](NC(=O)[C@H](CCC(=O)O)NC(=O)[C@H](C(C)C)NC(=O)[C@H](CO)NC(=O)[C@H](C)NC(=O)[C@H](CO)NC(=O)[C@@H](NC(=O)[C@H](CCCNC(=N)N)NC(=O)[C@H](CCSC)NC(=O)[C@H](CC(=O)O)NC(=O)[C@H](CCSC)NC(=O)[C@@H](N)CC(N)=O)CSSC[C@H](NC(=O)[C@H](CCCCN)NC(=O)CNC(=O)[C@H](Cc4ccccc4)NC(=O)[C@H](CCCNC(=N)N)NC(=O)[C@H](CO)NC(=O)CNC1=O)C(=O)N[C@@H](CCSC)C(=O)N[C@@H](CC(N)=O)C(=O)N[C@@H](CCCCN)C(=O)N[C@@H](CCCCN)C(=O)N3)C(=O)N[C@@H](CCCCN)C(=O)N[C@@H](CCC(N)=O)C(=O)N[C@@H](CCCCN)C(=O)N2` [compound 39] (H-NMDMRCSASVECKQKCLKAIGSRFGKCMNKKCKCYPR-NH2; disulfide 6-27, 12-32, 16-34) the same measures were 88, 963, 8.60, 10.00 and >15000.
As for `CCCC[C@@H]1NC(=O)[C@@H]2CSSC[C@H](NC(=O)[C@H](CCCNC(=N)N)NC(=O)[C@H](CCCC)NC(=O)[C@H](CC(=O)O)NC(=O)[C@H](CCCC)NC(=O)[C@@H](N)CC(N)=O)C(=O)N[C@@H](CO)C(=O)N[C@@H](C)C(=O)N[C@@H](CO)C(=O)N[C@@H](C(C)C)C(=O)N[C@@H](CCC(=O)O)C(=O)N[C@H]3CSSC[C@H](NC(=O)[C@H](CCCCN)NC(=O)[C@H](CCCCN)NC(=O)[C@H](CC(N)=O)NC1=O)C(=O)N[C@@H](CCCCN)C(=O)N[C@H](C(=O)N[C@@H](Cc1ccc(O)cc1)C(=O)N1CCC[C@H]1C(=O)N[C@@H](CCCNC(=N)N)C(N)=O)CSSC[C@H](NC(=O)[C@H](CO)NC(=O)[C@H](CCC(N)=O)NC(=O)[C@H](CCCCN)NC3=O)C(=O)N[C@@H](CC(C)C)C(=O)N[C@@H](CCCCN)C(=O)N[C@@H](C)C(=O)N[C@@H]([C@@H](C)CC)C(=O)NCC(=O)N[C@@H](CO)C(=O)N[C@@H]([C@@H](C)CC)C(=O)N[C@@H](Cc1ccccc1)C(=O)NCC(=O)N[C@@H](CCCCN)C(=O)N2` [compound 52] (H-N[Nle]D[Nle]RCSASVECKQSCLKAIGSIFGKC[Nle]NKKCKCYPR-NH2; disulfide 6-27, 12-32, 16-34), at human Kv1.2, the “Selectivity ratio Kv1.2/Kv1.3” value is >8200. For the same compound, the “Selectivity ratio Kv1.6/Kv1.3” value on human Kv1.6 is on record as >8200. The pIC50 in assay [1] is 10.15; against Rat whole blood, 9.20. The “Selectivity ratio Kv1.1/Kv1.3” value on human Kv1.1 was >8200.
With “H-NMDMRCSASVECKQKCLKAIGSIFGKCMNKKCKCYPRRRTA-NH2 (disulfide 6-27, 12-32, 16-34) [compound 28]”, at human Kv1.2, the “Selectivity ratio Kv1.2/Kv1.3” value is on record as 191. The “Selectivity ratio Kv1.6/Kv1.3” value on human Kv1.6 is 1472. Also, the values for the pIC50 (in assay [1]; on Rat whole blood) were 10.22 and 9.24, respectively. Moreover, the “Selectivity ratio Kv1.1/Kv1.3” value at human Kv1.1 came out at 4280.
